Measured values as given in article PMC8996149 (Acta Crystallographica. Section F, Structural Biology …, 2022).

What was measured:
[1] = biological target: T1, SALDAP (Alpine soil metagenome-derived salicylaldehyde dehydrogenase) (soil metagenome, UniProt Z9QUQ6R3A5); assay: X-ray crystal structure, […] Å; type: binding; details: active site, one ligand per monomer; ligand identity chosen by best fit to electron density (putative), no ligand added to the drop is told; pH 4.6
T1 construct: pLATE51, N-terminal 6xHis tag (no cleavage told), E. coli BL21 (DE3), purified; homodimer about 115 kDa; EC 1.2.1.65

[2] = biological target: T1, SALDAP (Alpine soil metagenome-derived salicylaldehyde dehydrogenase); assay: differential scanning fluorimetry (SYPRO Orange); type: binding; details: 2 mM ligand, 6 µM enzyme, 50 mM HEPES pH 7.4; no NAD+; untreated enzyme Tm 67.9 ± 0.17 °C
Text: differential scanning fluorimetry (SYPRO Orange) on SALDAP (Alpine soil metagenome-derived salicylaldehyde dehydrogenase)

[3] = biological target: the molecule itself; assay: SEC; analytical gel filtration on Sephacryl S-300 (K 9/30 column), 50 mM Tris-HCl, 17 mM Tris base, 150 mM NaCl pH 7.4, calibrated with standard proteins; mass estimated from the elution volume

Row | Melting temperature (T m) (°C) [2] [°C] | Molecule | X-ray crystal structure, 1.9 Å [1] | stoichiometry N [3]
1 | 69.2 ± 0.25 | O=C(O)c1ccc(O)c(O)c1 [protocatechuic acid] | protocatechuic acid (PCA) was chosen as the ligand bound to the active site | 
2 |  | Alpine soil metagenome-derived salicylaldehyde dehydrogenase (SALDAP) (enzyme, salicylaldehyde dehydrogenase SALDAP (EC 1.2.1.65) from an alphaproteobacterium, gene found by gene-targeted assembly in an Alpine soil metagenome; The pLATE51 vector adds the N-terminal 6×His tag; also called 6×His-SALDAP; 6×His SALDAP; not shown: 6×His, N-terminal, kept) MRGLTVNFERINPMTNQTASTAKAMTAAEARAVADRAAAGFAGWSVLGPNARRAVLMKAAAALEARKDDFVQAMMAEIGATAGWAMFNLMLAASMIREAAALTTQIGGEVIPSDKPGCLALALREPVGVVLGIAPWNAPIILGVRAIAVPLACGNAVILKASEICPRTHGLIIESFAEAGFPEGVVNVVTNAPQDAGEVVGALIDHPAVKRINFTGSTGVGRIIAKRAAEHLKPCLLELGGKAPLVVLDDADLDEAAKAAAFGAFMNQGQICMSTERIIVVEAIAAEFTRRFAAKAQSMATGDPREGKTPLGAVVDRKTVDHVNTLIDDATAKGARIIAGGKGDSVLMSATVVDGVTAAMKLYRDESFGPIVGIIRAKDEADAVRLANDSEYGLAAAVFTRDTARGLRVARQIRSGICHINGPTVHDEAQMPFGGVGASGYGRFGGKAGIDQFTELRWITMETQPGHFPI |  | 2
